The source made the active and inactive calls. The rule behind the calls is not given here.
Tested on: CCRIS mutagenicity, Ames/micronucleus/aberration tests
Test: CCRIS mutagenicity studies

Measured: mutagenic call

CN(C)N=O
active: End Point: IN VITRO CHROMOSOMAL ABERRATIONS, Test System: CHL/IU CELLS, Metabolic Activation: RAT, LIVER, S-9, PHENOBARBITAL AND 5,6-BENZOFLAVONE active; positive (structural changes) | End Point: IN VITRO MICRONUCLEUS, Test System: CHL/IU CELLS, Metabolic Activation: RAT, LIVER, S-9, PHENOBARBITAL AND 5,6-BENZOFLAVONE active; positive | End Point: IN VIVO MICRONUCLEUS, Test System: HEPATOCYTES, Species: RAT, Strain/Sex: FISHER 344 OR SD/MALE, Route: ORAL OR IP active; positive | End Point: In vivo micronucleus, Test System: Liver, Species: Mouse, Strain/Sex: Big Blue/Male, Route: Oral active; positive for laci mutation frequency in liver; high percentage of g:c to t:a t | End Point: In vivo micronucleus, Test System: Micronucleated hepatocytes, Species: Rat, Strain/Sex: F344/Male, Route: Oral active; positive (p<0.01) | Test System: AMES SALMONELLA TYPHIMURIUM, Strain/Indicator: NM2000, Metabolic Activation: RAT, LIVER, S-9, ISONIAZID, Method: PREINCUBATION active; positive | Test System: AMES SALMONELLA TYPHIMURIUM, Strain/Indicator: NM2009, Metabolic Activation: RAT, LIVER, S-9, ISONIAZID, Method: PREINCUBATION active; positive | Test System: AMES SALMONELLA TYPHIMURIUM, Strain/Indicator: TA92, Metabolic Activation: MOUSE, LIVER, S-10, Method: PREINCUBATION active; positive | Test System: AMES SALMONELLA TYPHIMURIUM, Strain/Indicator: TA100, Metabolic Activation: HAMSTER, LIVER, S-9, AROCLOR 1254, NADPH GENERATING SYSTEM, CYTOSOL, Method: PREINCUBATION active; positive | Test System: AMES SALMONELLA TYPHIMURIUM, Strain/Indicator: TA100, Metabolic Activation: HAMSTER, LIVER, S-9, Method: PREINCUBATION active; positive | Test System: AMES SALMONELLA TYPHIMURIUM, Strain/Indicator: TA100, Metabolic Activation: MICROSOMES, CYTOSOL, Method: PREINCUBATION active; positive | Test System: AMES SALMONELLA TYPHIMURIUM, Strain/Indicator: TA100, Metabolic Activation: MOUSE, INTACT UROTHELIAL CELLS, Method: FLUCTUATION TEST active; positive | Test System: AMES SALMONELLA TYPHIMURIUM, Strain/Indicator: TA100, Metabolic Activation: MOUSE, LIVER, S-9, PHENOBARBITAL AND BETA-NAPHTHOFLAVONE, Method: PREINCUBATION active; positive | Test System: AMES SALMONELLA TYPHIMURIUM, Strain/Indicator: TA100, Metabolic Activation: MOUSE, LIVER, S-9, PHENOBARBITAL, BETA-NAPHTHOFLAVONE, ISOSAFROLE, ETHANOL, PREGNENOLONE AND 16ALPHA-CARBONITRILE, Method: PREINCUBATION active; positive | Test System: AMES SALMONELLA TYPHIMURIUM, Strain/Indicator: TA100, Metabolic Activation: RAT, INTACT UROTHELIAL CELLS, Method: FLUCTUATION TEST active; positive | Test System: AMES SALMONELLA TYPHIMURIUM, Strain/Indicator: TA100, Metabolic Activation: RAT, LIVER, S-9, AROCLOR 1254, (PREGNANT MARE SERUM), Method: PREINCUBATION active; positive | Test System: AMES SALMONELLA TYPHIMURIUM, Strain/Indicator: TA100, Metabolic Activation: RAT, LIVER, S-9, AROCLOR 1254, Method: PREINCUBATION active; positive | Test System: AMES SALMONELLA TYPHIMURIUM, Strain/Indicator: TA100, Metabolic Activation: RAT, LIVER, S-9, CYCLOHEXANOL, Method: PREINCUBATION active; positive | Test System: AMES SALMONELLA TYPHIMURIUM, Strain/Indicator: TA100, Metabolic Activation: RAT, LIVER, S-9, ETHANOL, Method: PREINCUBATION active; positive | Test System: AMES SALMONELLA TYPHIMURIUM, Strain/Indicator: TA100, Metabolic Activation: RAT, LIVER, S-9, KC500 OR PHENOBARBITAL, Method: LIQUID SUSPENSION active; positive | Test System: AMES SALMONELLA TYPHIMURIUM, Strain/Indicator: TA100, Metabolic Activation: RAT, LIVER, S-9, N-BENZYLIMIDAZOLE, Method: PREINCUBATION active; positive | Test System: AMES SALMONELLA TYPHIMURIUM, Strain/Indicator: TA100, Metabolic Activation: RAT, LIVER, S-9, PHENOBARBITAL, Method: PREINCUBATION active; positive | Test System: AMES SALMONELLA TYPHIMURIUM, Strain/Indicator: TA104, Metabolic Activation: HAMSTER, LIVER, S-9, AROCLOR 1254, NADPH GENERATING SYSTEM, CYTOSOL, Method: PREINCUBATION active; positive | Test System: AMES SALMONELLA TYPHIMURIUM, Strain/Indicator: TA104, Metabolic Activation: HAMSTER, LIVER, S-9, AROCLOR 1254, Method: PREINCUBATION active; positive | Test System: AMES SALMONELLA TYPHIMURIUM, Strain/Indicator: TA104, Metabolic Activation: HAMSTER, LIVER, S-9, Method: PREINCUBATION active; positive | Test System: AMES SALMONELLA TYPHIMURIUM, Strain/Indicator: TA104, Metabolic Activation: MICROSOMES, CYTOSOL, Method: PREINCUBATION active; positive | Test System: AMES SALMONELLA TYPHIMURIUM, Strain/Indicator: TA104, Metabolic Activation: RAT, LIVER, S-9, AROCLOR 1254, Method: PREINCUBATION active; positive | Test System: AMES SALMONELLA TYPHIMURIUM, Strain/Indicator: TA104, Metabolic Activation: RAT, LIVER, S-9, Method: PREINCUBATION active; positive | Test System: AMES SALMONELLA TYPHIMURIUM, Strain/Indicator: TA1530, Metabolic Activation: RAT, LIVER, S-9, AROCLOR 1254, Method: PREINCUBATION active; positive | Test System: AMES SALMONELLA TYPHIMURIUM, Strain/Indicator: TA1530, Metabolic Activation: RAT, LIVER, S-9, Method: STANDARD PLATE active; positive | Test System: AMES SALMONELLA TYPHIMURIUM, Strain/Indicator: TA1535 (PSK1002), Metabolic Activation: RAT, LIVER, S-9, ISONIAZID, Method: PREINCUBATION active; positive | Test System: AMES SALMONELLA TYPHIMURIUM, Strain/Indicator: TA1535, Metabolic Activation: RAT, LIVER, HEPATOCYTES, Method: PREINCUBATION active; positive | Test System: AMES SALMONELLA TYPHIMURIUM, Strain/Indicator: TA1535, Metabolic Activation: RAT, LIVER, MICROSOMES, KANECHLOR 500, Method: PREINCUBATION active; positive | Test System: AMES SALMONELLA TYPHIMURIUM, Strain/Indicator: TA1535, Metabolic Activation: RAT, LIVER, S-9, AROCLOR 1254, (PREGNANT MARE SERUM), Method: PREINCUBATION active; positive | Test System: AMES SALMONELLA TYPHIMURIUM, Strain/Indicator: TA1535, Metabolic Activation: RAT, LIVER, S-9, AROCLOR 1254, Method: PREINCUBATION active; positive | Test System: AMES SALMONELLA TYPHIMURIUM, Strain/Indicator: TA1535, Metabolic Activation: RAT, LIVER, S-9, AROCLOR, Method: PREINCUBATION active; positive | Test System: AMES SALMONELLA TYPHIMURIUM, Strain/Indicator: TA1535, Metabolic Activation: RAT, LIVER, S-9, KC500 OR PHENOBARBITAL, Method: LIQUID SUSPENSION active; positive | Test System: AMES SALMONELLA TYPHIMURIUM, Strain/Indicator: TA1535, Metabolic Activation: RAT, LIVER, S-9, SODIUM PHENOBARBITONE, Method: PREINCUBATION active; positive | Test System: AMES SALMONELLA TYPHIMURIUM, Strain/Indicator: TA1535, Metabolic Activation: S-9, Method: PREINCUBATION active; positive
inactive: End Point: IN VITRO CHROMOSOMAL ABERRATIONS, Test System: CHO CELLS, Metabolic Activation: NONE inactive; negative | End Point: IN VIVO MICRONUCLEUS, Test System: PERIPHERAL BLOOD RETICULOCYTES, Species: RAT, Strain/Sex: FISHER 344 OR SD/MALE, Route: ORAL OR IP inactive; negative | Test System: AMES SALMONELLA TYPHIMURIUM, Strain/Indicator: TA97, Metabolic Activation: NONE, Method: STANDARD PLATE inactive; negative | Test System: AMES SALMONELLA TYPHIMURIUM, Strain/Indicator: TA97, Metabolic Activation: RAT, LIVER, S-9, AROCLOR 1254, Method: STANDARD PLATE inactive; negative | Test System: AMES SALMONELLA TYPHIMURIUM, Strain/Indicator: TA98, Metabolic Activation: NONE, Method: STANDARD PLATE inactive; negative | Test System: AMES SALMONELLA TYPHIMURIUM, Strain/Indicator: TA98, Metabolic Activation: RAT, LIVER, S-9, AROCLOR 1254, Method: STANDARD PLATE inactive; negative | Test System: AMES SALMONELLA TYPHIMURIUM, Strain/Indicator: TA100, Metabolic Activation: HUMAN, LIVER, S-9, Method: PREINCUBATION inactive; negative | Test System: AMES SALMONELLA TYPHIMURIUM, Strain/Indicator: TA100, Metabolic Activation: NONE, Method: PREINCUBATION inactive; negative | Test System: AMES SALMONELLA TYPHIMURIUM, Strain/Indicator: TA100, Metabolic Activation: NONE, Method: STANDARD PLATE inactive; negative | Test System: AMES SALMONELLA TYPHIMURIUM, Strain/Indicator: TA100, Metabolic Activation: PIG, LIVER, S-9, Method: PREINCUBATION inactive; negative | Test System: AMES SALMONELLA TYPHIMURIUM, Strain/Indicator: TA100, Metabolic Activation: RABBIT, LIVER, S-9, Method: STANDARD PLATE inactive; negative | Test System: AMES SALMONELLA TYPHIMURIUM, Strain/Indicator: TA100, Metabolic Activation: RABBIT, LUNG, S-9, Method: STANDARD PLATE inactive; negative | Test System: AMES SALMONELLA TYPHIMURIUM, Strain/Indicator: TA100, Metabolic Activation: RABBIT, NASAL, S-9, Method: STANDARD PLATE inactive; negative | Test System: AMES SALMONELLA TYPHIMURIUM, Strain/Indicator: TA100, Metabolic Activation: RAT, LIVER, S-9, AROCLOR 1254, Method: STANDARD PLATE inactive; negative | Test System: AMES SALMONELLA TYPHIMURIUM, Strain/Indicator: TA100, Metabolic Activation: RAT, LUNG, S-9, Method: STANDARD PLATE inactive; negative | Test System: AMES SALMONELLA TYPHIMURIUM, Strain/Indicator: TA100, Metabolic Activation: RAT, NASAL, S-9, Method: STANDARD PLATE inactive; negative | Test System: AMES SALMONELLA TYPHIMURIUM, Strain/Indicator: TA100, Metabolic Activation: S-9, Method: PREINCUBATION inactive; negative | Test System: AMES SALMONELLA TYPHIMURIUM, Strain/Indicator: TA100, Metabolic Activation: TOBACCO CELLS, Method: PREINCUBATION inactive; negative | Test System: AMES SALMONELLA TYPHIMURIUM, Strain/Indicator: TA1535, Metabolic Activation: NONE, Method: PREINCUBATION inactive; negative | Test System: AMES SALMONELLA TYPHIMURIUM, Strain/Indicator: TA1535, Metabolic Activation: RAT LIVER S-9, ETHANOL (4%), Method: PREINCUBATION inactive; negative | Test System: AMES SALMONELLA TYPHIMURIUM, Strain/Indicator: TA1535, Metabolic Activation: RAT, LIVER, S-9, Method: PREINCUBATION inactive; negative

From PubChem BioAssay AID1259407 (Chemical Carcinogenesis Research Information System (CCRIS), 2018)
